According to patent publication US4026888A, “Certain derivatives of particular 3-thiolated cephalosporins” (priority 1976, dated 1977):
Converted amounts (≈) assume the structure as drawn. Like-named read-outs stand apart in the source and are kept apart here.

Experiments:
P. mirabilis A9900 [1] = test: Oral PD50 in mice; type: in vivo; conditions: mice treated at 1 and 3.5 hours post-challenge
Str. pyogenes A9604 = test: Antibiotic activity in nutrient broth (MIC); type: cell-based; conditions: Streptococcus pyogenes, A9604, inoculum 10^-3; 45% AAB + 5% serum + 50% broth; derivatives adjusted for BL-S640 content; read-out: MIC
Excerpt: (§1) Antibiotic Activity In Nutrient Broth
(§2) * 45% AAB+ 5% serum+ 50% broth listed above.
(§3) ** Dilution of overnight broth culture.
(§4) Antibiotic Spectrum Nutrient Broth
(§5) * 45% AAB + 5% serum + 50% broth
(§6) Antibiotic Spectrum in Nutrient Broth
(§7) *45% AAB + 5% serum + 50% broth listed above.

Str. pneumoniae A9585 = test: Antibiotic activity in nutrient broth (MIC); type: cell-based; conditions: Streptococcus pneumoniae, A9585, inoculum 10^-3 dilution of overnight broth culture; 45% AAB + 5% serum + 50% broth; derivatives adjusted for BL-S640 content
Excerpt: as §1, §2, §3, §4, §5, §6, §7

P. mirabilis A9900 [2] = test: IM PD50 in mice; type: in vivo; conditions: Proteus mirabilis
Excerpt: Comparative IM PD50 Values of
(§8) BL-S640 Derivatives in Mice

[3] = Mouse blood levels after intramuscular administration; type: in vivo; conditions: mouse, blood, im, 10 mg/kg, Example 2, IM 10 mg./kg., 0.01% phosphate buffer, 16 or 32 mice, read-out: Blood Levels
Procedure: Mouse Blood Levels After Intramuscular Administration
of 10 mg./kg. Body Weight
The compounds were dissolved in 0.01% phosphate buffer.
Mouse Blood Levels After IM
Administration of 10 mg./kg. Body Weight
The compounds were prepared in 0.01% phosphate
(§9) The compounds were prepared in 0.01% phosphate buffer.

[4] = 0.2 and 1.0 mg./ml. in water
Procedure: Paper strip bioautographs were run in the following manner. Samples were dissolved at a concentration of 500 γ/ml. in 0.1M pH 7 phosphate buffer and pH 7 pooled human serum at 500 γ/ml. A 10 μl sample of BL-S640 and the above product were spotted on a 1/2 inch strip of What. No. 1 paper and developed at 27° for 16 hours in a butyl acetate 80, n-butanol 15, acetic acid 40, and water 24 system. The strips were air-dried, and placed on an agar plate seeded with B. subtilis A.T.C.C.
Samples were chromatographed on a μ Bondapak C18 (Waters Associates) column using a 0.01M sodium acetate pH 4/-methanol 8/2 mobile phase at a flow rate of 0.52 ml./min. Detection was by UV at 354 μm. Samples were dissolved at a concentration of 1 mg./ml. in the mobile phase, 2 μ were injected and BL-S640 was eluted at 18 min. and the aldehyde at 6 min. The quantitation of BL-S640 and 5-formylfuransulfonic acid were made using p-toluene-sulfonic acid as an internal standard.

[5] = Mouse blood levels after oral administration; type: in vivo; conditions: mouse, blood, po, 100 mg/kg, Example 2, PO 100 mg./kg., Tween-CMC, 16 or 32 mice, read-out: Blood Levels
Procedure: Mouse Blood Levels After Oral
Administration Of 100 mg./kg. Body Weight
The compounds were prepared in
Tween - carboxymethylcellulose
and 8 mice were used for each
Mouse Blood Levels After PO
Administration of 100 mg./kg. Body Weight
The compounds were prepared in Tween-CMC. BL-S640
The compounds were prepared in Tween-CMC. Values are the average of two

[6] = Urinary recovery after IM administration to rats; type: in vivo; conditions: rat, urine, read-out: Urinary Recovery, Percentage of Administered Dose Recovered; for dose excreted at 6 h: 0-6 hr
Procedure: Urinary Recovery After IM
Administration of 50 and 10 mg./kg. to Rats
The compounds were prepared in 0.01% phosphate buffer. BL-S640 was used as
Urinary Recovery after IM
Administration of 50 mg./kg. to Rats
as §9

Ent. cloacae A9659 = test: Antibiotic activity in nutrient broth (MIC); type: cell-based; conditions: Enterobacter cloacae, A9659, inoculum 10^-4; derivatives adjusted for BL-S640 content; read-out: MIC
Excerpt: as §1, §3, §4, §6

Ser. marcescens A20019 = test: Antibiotic activity in nutrient broth (MIC); type: cell-based; conditions: Serratia marcescens, A20019, inoculum 10^-4; derivatives adjusted for BL-S640 content
Excerpt: as §1, §3, §4, §6

Pr. mirabilis A9900 = test: Antibiotic activity in nutrient broth (MIC); type: cell-based; conditions: Proteus mirabilis, inoculum 10^-4, derivatives adjusted for BL-S640 content
Excerpt: as §1, §3, §4, §6

Ps. aeruginosa A9843A = test: Antibiotic activity in nutrient broth (MIC); type: cell-based; conditions: Pseudomonas aeruginosa
Excerpt: as §1, §3, §4, §6

S. aureus BX1633 A9606 = test: Antibiotic activity in nutrient broth (MIC); type: cell-based; conditions: Staphylococcus aureus, derivatives adjusted for BL-S640 content, read-out: MIC
Excerpt: as §1, §3, §4, §6

S. aureus Smith A9537 = test: Antibiotic activity in nutrient broth (MIC); type: cell-based; conditions: Staphylococcus aureus, SMITHA9537, inoculum 10^-4, derivatives adjusted for BL-S640 content, read-out: MIC
Excerpt: as §1, §3, §4, §6

[7] = tested on: S. aureus Meth-Res A15097; test: Antibiotic activity in nutrient broth (MIC); type: cell-based; conditions: Staphylococcus aureus, inoculum 10^-3; Meth-Res; derivatives adjusted for BL-S640 content; read-out: MIC
Excerpt: as §1, §3, §4, §6

E. coli Juhl A15119 = test: Antibiotic activity in nutrient broth (MIC); type: cell-based; conditions: Escherichia coli, JUHLA15119, inoculum 10^-4; derivatives adjusted for BL-S640 content; read-out: MIC
Excerpt: as §1, §3, §4, §6

[8] = Paper chromatography of rat urine for antibiotically active metabolites; type: in vivo; conditions: IM; rat urine 0-2 and 2-4 hours
Procedure: Paper chromatograms were run on rat urine collected between 0 and 2 and between 2 and 4 hours following IM administration of BL-S1055 and 640, for the detection of antibiotically active metabolites using descending chromatography with system No. 9 (butyl acetate:n-butanol:glacial acetic acid:H2 O= 80:15:40:24).

E. coli A15119 = test: Oral PD50 in mice; type: in vivo; conditions: Escherichia coli, A15119, po, 3.5 h, read-out: PD50
Procedure: (§10) Comparative Oral PD50 Values of
as §8
(§11) *Mice were treated at 1 and 3.5 hours post-challenge.

P. mirabilis A9707 = test: Oral PD50 in mice; type: in vivo; conditions: Proteus mirabilis, mice treated at 1 and 3.5 hours post-challenge
Procedure: as §10, §8, §11

K. pneumoniae A9977 = test: Oral PD50 in mice; type: in vivo; conditions: Klebsiella pneumoniae, A9977, po, 3.5 h, read-out: PD50
Procedure: as §10, §8, §11

S. pyogenes A9604 = test: Oral PD50 in mice; type: in vivo; conditions: Streptococcus pyogenes, mice treated at 1 and 3.5 hours post-challenge
Procedure: as §10, §8, §11

## O=C(O)COc1ccccc1C1N[C@H](c2ccc(O)cc2)C(=O)N1[C@@H]1C(=O)N2C(C(=O)O)=C(CSc3cnn[nH]3)CS[C@H]12 (stereo partly drawn) [BL-S1048]
P. mirabilis A9900 [1]; Proteus mirabilis, A9900, po, 3.5 h, read-out: PD50, oral
  ED50: 4.7 mg/kg
P. mirabilis A9900 [1]; oral
  PD50: 3.6 mg./kg./treatment
Str. pyogenes A9604
  MIC: 0.03 mg/L
Str. pneumoniae A9585
  MIC: 0.06 mg/L
P. mirabilis A9900 [2]
  ED50: 1.6 mg/kg
[3]; 0.25 hr
  concentration at 0.25 h: 14.8 µg/mL
[3]; 0.5 hr
  concentration at 0.5 h: 14.1 µg/mL
[3]; 1 hr
  concentration at 1 h: 10.3 µg/mL
[3]; 1.5 hr
  concentration at 1.5 h: 7 µg/mL
[4]
  Form in solution by paper strip and liquid chromatography: BL-S640 completely free of the aldehyde
[5]; 0.5 hr
  concentration at 0.5 h: 46.5 µg/mL
[5]; 1 hr
  concentration at 1 h: 44.6 µg/mL
[5]; 2 hr
  concentration at 2 h: 28.1 µg/mL
[5]; 3.5 hr
  concentration at 3.5 h: 12.8 µg/mL
[6]; 10 mg/kg, IM 10 mg./kg.
  dose excreted at 6 h: 21.7%
[6]; 10 mg/kg, IM 10 mg./kg., 0-24 hr
  dose excreted at 24 h: 23.7%
[6]; 10 mg/kg, IM 10 mg./kg., 6-24 hr
  dose excreted at 24 h: 2%
[6]; 50 mg/kg, IM 50 mg./kg.
  dose excreted at 6 h: 32.3%
[6]; 50 mg/kg, IM 50 mg./kg., 0-24 hr
  dose excreted at 24 h: 34.7%
[6]; 50 mg/kg, IM 50 mg./kg., 6-24 hr
  dose excreted at 24 h: 2.4%
Ent. cloacae A9659
  MIC: 32 mg/L (≈ 51.2 µM)
Ser. marcescens A20019
  MIC: > 125 mg/L
Pr. mirabilis A9900
  MIC: 0.5 mg/L (≈ 0.8 µM)
Ps. aeruginosa A9843A
  MIC: > 125 mg/L
S. aureus BX1633 A9606; BX1633A9606, inoculum 10^-2
  MIC: 2 mg/L (≈ 3.2 µM)
S. aureus BX1633 A9606; BX1633A9606, inoculum 10^-3
  MIC: 0.25 mg/L (≈ 0.4 µM)
S. aureus Smith A9537; + 50% serum
  MIC: 2 mg/L
S. aureus Smith A9537; nutrient broth
  MIC: 0.13 mg/L (≈ 0.208 µM)
[7]
  MIC: 4 mg/L (≈ 6.4 µM)
E. coli Juhl A15119
  MIC: 0.5 mg/L (≈ 0.8 µM)
[8]
  Hydrolysis to the parent compound (BL-S640): complete hydrolysis
E. coli A15119; oral, mice treated at 1 and 3.5 hours post-challenge
  ED50: 3.1 mg/kg
E. coli A15119
  ED50: 1.6 mg/kg
P. mirabilis A9707
  ED50: 2.4 mg/kg
K. pneumoniae A9977
  ED50: 0.7 mg/kg
S. pyogenes A9604
  ED50: 0.2 mg/kg
